Measured values reported in patent publication US12662458B2, “Solid forms of a compound” (Denali Therapeutics Inc., priority 2020, dated 2026).
Converted amounts (≈) assume the structure as drawn. “Also recorded” adds a separate entry of the source.

Assays:
[1] = Plasma PK in rats, nanosuspension; format: in vivo; settings: rat, nanosuspension in deionized water, single oral 25 mg/kg
Experimental: Wistar Han rats were administered a nanosuspension of Form A or Form C as a single oral administration at 25 mg/kg. The nanosuspensions were prepared by suspending nano-milled Form A or Form C in deionized water (2.5 mg/mL) to obtain opaque homogenous suspensions. Blood samples were collected at 0.25, 0.5, 1, 2, 4, 8, 24, 48, and 72 hours post-dose. Concentrations of Compound I in plasma samples were determined by LC/MS/MS.

[2] = Biorelevant media solubility of Forms A and C; format: physicochemical; settings: for Solubility / Final XRPD: 37° C.
Experimental: Biorelevant media solubility of Forms A and C were studied in water, SGF, FaSSIF, and FeSSIF at 37° C. 10-20 mg of Form A or C was weighed into 2-3 mL glass vials and media was added to achieve a solids loading of ˜5 mg/mL. Each slurry was magnetically agitated at 750-1000 rpm at 37° C., filtered via centrifugation, and the supernatant was analyzed by HPLC to determine solubility. In all cases, there was no polymorphic form change observed by XRPD analysis of the filtered solids.

[3] = Solid form stability on storage; format: physicochemical
Experimental: To evaluate the solid form stability, Forms A and C were stored under 25° C./60% RH (open), 40° C./75% RH (open), and 60° C. for up to 4 weeks. Samples were analyzed by XRPD, TGA, DSC, and HPLC purity.

[4] = Dynamic vapor sorption (hygroscopicity); format: physicochemical; settings: DVS
Experimental: DVS analysis was carried out using a Surface Measurement System DVS Intrinsic analyzer. The instrument was calibrated with standard weights. Approximately 15-20 mg of sample was loaded into a pan for analysis. The sample was analyzed at 25° C. in 10% relative humidity (RH) steps from 0 to 95% RH (adsorption cycle) and from 95 to 0% RH (desorption cycle). The movement from one step to the next occurred either after satisfying the equilibrium criterion of 0.002% weight change (dm/dt) or, if the equilibrium criterion was not met, after ten hours.

[5] = Plasma PK in monkeys, powder in capsule; format: in vivo; settings: male, cynomolgus monkey, po, 15 mg/kg, single oral 15 mg/kg; for AUC(0-t): read-out: AUC0-24 h; for Tmax: read-out: Tmax
Experimental: Non-naïve male cynomolgus monkeys were used in this study with at least a 7-day washout period prior to dosing Animals were administered micronized Form A, unmicronized Form A, or micronized Form C powder in capsule by single oral administration at 15 mg/kg. The capsules were prepared according to the animals' body weights on dosing day. Blood samples were collected at 0.25, 0.5, 1, 2, 4, 8, 24, 48, and 72 hours post-dose.

[6] = Plasma PK in monkeys, nanosuspension; format: in vivo; settings: male, cynomolgus monkey, po, 25 mg/kg, nanosuspension in deionized water, single oral 25 mg/kg
Experimental: Non-naïve male cynomolgus monkeys were used in this study with at least a 7-day washout period prior to dosing Animals were administered a nanosuspension of Form C as a single oral administration at 25 mg/kg. The nanosuspension was prepared by suspending nano-milled Form C in deionized water (5 mg/mL) to obtain an opaque homogenous suspension. Blood samples were collected at 0.25, 0.5, 1, 2, 4, 8, 24, 48, and 72 hours post-dose. Concentrations of Compound I in plasma samples were determined by LC/MS/MS.
A separate study was performed for a nanosuspension of Form A.

[7] = Slurry interconversion of Form A and Form C; format: physicochemical
Experimental: Form A slurry converts to Form C in the presence of Form C seed. For example, Form A (10 mg) and Form C (10 mg) were stirred in saturated IPA/water and MeCN/water at temperatures ranging from 5-60° C. […] Form A could only be prepared in a location uncontaminated with Form C (e.g., locations where From C had not previously existed).

[8] = system: ISR pathway (H4 ATF4-NLuc cell line); assay: ATF4 Nano Luciferase reporter integrated stress response (ISR) assay; format: cell-based; settings: Homo sapiens; H4 ATF4-NLuc (clone 17) cells, 50 um sodium arsenite 6 hours, luminescence
Text: Cellular stress leads to activation of the integrated stress response pathway through one of four eukaryotic initiation factor 2α kinases and halts global translation, while allowing for the translation of select transcripts like ATF4 (activating transcription factor 4) that are important for the response to cellular stress. During normal conditions, small open reading frames (ORFs) in the 5′ UTR of ATF4 occupy the ribosome and prevent translation of the coding sequence of ATF4. During stress conditions however, the ribosome scans past these upstream ORFs and preferentially begins translation at the coding sequence of ATF4. In this way, the translation, and thus protein level of ATF4 is a readout of ISR pathway activation. Thus, a fusion of the uORFs and the beginning of the coding sequence of ATF to a common cellular reporter like nano-luciferase allows for a sensitive and high-throughput readout of ISR pathway activity.
Compound I, or any of its forms described herein, may be tested in the following assay. […] We utilized this cell line to generate an integrated stress response (ISR) assay to evaluate the activity of ISR pathway inhibitors via luminescence readout. […]

Vacuum drying of Form B = format: physicochemical; settings: vacuum drying at room temperature
Experimental: A 1,4-dioxane solution of Form A was prepared by dissolving 20 mg in 0.2-1.0 mL of 1,4-dioxane until clear solution was obtained. Then, water was added while maintaining magnetic agitation until precipitate appeared. […] XRPD data was obtained on the wet-cake prior to drying.
Form B can only be prepared in a location where Form C has rigorously been excluded, otherwise the conditions to prepare Form B (described above) will instead produce Form C, the most thermodynamically stable form identified.

[9] = Storage stability of amorphous Form D; format: physicochemical
Experimental: Form A was kept in an oven at 150° C. until all solids melted. The melt was kept at 150° C. for 5 minutes and was then taken out of the oven and cooled to room temperature.

Compound: O=C(COc1ccc(Cl)cc1)NC12CC(c3nnc([C@H]4C[C@@H](OC(F)(F)F)C4)o3)(C1)C2 (single isomer, unassigned) [Form A, 2-(4-chlorophenoxy)-N-[3-[5-[cis-3-(trifluoromethoxy)cyclobutyl]-1,3,4-oxadiazol-2-yl]-1-bicyclo[1.1.1]pentanyl]acetamide]
- Cmax ([1]; Wistar Han, po, 25 mg/kg): 105 ± 8 µM
- AUC(0-t) ([1]; Wistar Han, po, 25 mg/kg, read-out: AUC0-48 h): 1700 ± 271 µM·h
- Tmax ([1]; Wistar Han rats, read-out: Tmax): 8 h
- Solubility ([2]; FaSSIF): 0.025 mg/mL (≈ 54.6 µM)
- Solubility ([2]; FeSSIF): 0.044 mg/mL (≈ 96.1 µM)
- Solubility ([2]; SGF): 0.046 mg/mL (≈ 100 µM)
- Solubility ([2]; Water): 0.0097 mg/mL (≈ 21.2 µM)
- Final XRPD ([2]; filtered solids after slurry in FaSSIF): Form A
- Final XRPD ([2]; filtered solids after slurry in FeSSIF): Form A
- Final XRPD ([2]; filtered solids after slurry in SGF): Form A
- Final XRPD ([2]; filtered solids after slurry in Water): Form A
- aqueous solubility ([2]; listed as Compound I Form A): about 9.7 microgram/mL
- DSC endotherm ([3]; 25° C./60% RH (open), 1 week): 125.6 °C
- HPLC purity ([3]; 25° C./60% RH (open), 1 week): 99.3%
- TGA loss (%, to 150° C.) ([3]; 25° C./60% RH (open), 1 week): 1.8%
- XRPD ([3]; 25° C./60% RH (open), 1 week): Form A
- DSC endotherm ([3]; 25° C./60% RH (open), 4 week): 125.3 °C
- HPLC purity ([3]; 25° C./60% RH (open), 4 week): 98.8%
- TGA loss (%, to 150° C.) ([3]; 25° C./60% RH (open), 4 week): 0.6%
- XRPD ([3]; 25° C./60% RH (open), 4 week): Form A
- solid form stability (form change, weight gain, purity changes) ([3]; 25° C./60% RH (open), 40° C./75% RH (open), 60° C., up to 4 weeks): No form change, weight gain, or purity changes
- DSC endotherm ([3]; 40° C./75% RH (open), 1 week): 125.4 °C
- HPLC purity ([3]; 40° C./75% RH (open), 1 week): 99.3%
- TGA loss (%, to 150° C.) ([3]; 40° C./75% RH (open), 1 week): 0.9%
- XRPD ([3]; 40° C./75% RH (open), 1 week): Form A
- DSC endotherm ([3]; 40° C./75% RH (open), 4 week): 125.1 °C
- HPLC purity ([3]; 40° C./75% RH (open), 4 week): 98.7%
- TGA loss (%, to 150° C.) ([3]; 40° C./75% RH (open), 4 week): 0.7%
- XRPD ([3]; 40° C./75% RH (open), 4 week): Form A
- DSC endotherm ([3]; 60° C. (open), 1 week): 125.2 °C
- HPLC purity ([3]; 60° C. (open), 1 week): 99.3%
- TGA loss (%, to 150° C.) ([3]; 60° C. (open), 1 week): 0.7%
- XRPD ([3]; 60° C. (open), 1 week): Form A
- DSC endotherm ([3]; 60° C. (open), 4 week): 125.1 °C
- HPLC purity ([3]; 60° C. (open), 4 week): 98.8%
- TGA loss (%, to 150° C.) ([3]; 60° C. (open), 4 week): 0.6%
- XRPD ([3]; 60° C. (open), 4 week): Form A
- DSC endotherm ([3]; Initial): 125.0 °C
- HPLC purity ([3]; Initial): 98.5%
- TGA loss (%, to 150° C.) ([3]; Initial): 0.4%
- XRPD ([3]; Initial): Form A
- Hygroscopicity [4]: Non-hygroscopic
- weight change / form change after exposure to humidity [4]: no form change
- Cmax ([5]; micronized (d90 5)): 9.8 ± 4.1 µM
- AUC(0-t) ([5]; micronized (d90 5)): 154 ± 44 µM·h
- Tmax ([5]; micronized (d90 5)): 8 h
- Cmax ([5]; unmicronized (d90 43)): 5.6 ± 0.4 µM
- AUC(0-t) ([5]; unmicronized (d90 43)): 92 ± 24 µM·h
- Tmax ([5]; unmicronized (d90 43)): 4 h
- Cmax [6]: 25.4 ± 4.1 µM
- AUC(0-t) ([6]; read-out: AUC0-24 h): 451 ± 84 µM·h
- Tmax ([6]; read-out: Tmax): 4 h
- Results (solid form after slurry) ([7]; ACN/water (1:2), 5 ° C., 8 day): Form C
- Results (solid form after slurry) ([7]; ACN/water (1:2), 22 ° C., 8 day): Form C
- Results (solid form after slurry) ([7]; ACN/water (1:2), 60 ° C., 6 day): Form C
- solid form after slurry by XRPD and DSC ([7]; Form A (10 mg) and Form C (10 mg) in saturated IPA/water and MeCN/water, 5-60° C., 6-8 days): only Form C was present
- Results (solid form after slurry) ([7]; IPA/water (1:1), 5 ° C., 8 day): Form C
- Results (solid form after slurry) ([7]; IPA/water (1:1), 22 ° C., 8 day): Form C
- Results (solid form after slurry) ([7]; IPA/water (1:1), 60 ° C., 6 day): Form C

Compound: O=C(COc1ccc(Cl)cc1)NC12CC(c3nnc([C@H]4C[C@@H](OC(F)(F)F)C4)o3)(C1)C2 [Compound I, 2-(4-chlorophenoxy)-N-[3-[5-[cis-3-(trifluoromethoxy)cyclobutyl]-1,3,4-oxadiazol-2-yl]-1-bicyclo[1.1.1]pentanyl]acetamide]
- IC50 [8]: < 1 µM

Compound: O=C(COc1ccc(Cl)cc1)NC12CC(c3nnc([C@H]4C[C@@H](OC(F)(F)F)C4)o3)(C1)C2 [Form B, 2-(4-chlorophenoxy)-N-[3-[5-[cis-3-(trifluoromethoxy)cyclobutyl]-1,3,4-oxadiazol-2-yl]-1-bicyclo[1.1.1]pentanyl]acetamide]
- form after vacuum drying (Vacuum drying of Form B): converted to Form A; also recorded: desolvates to Form A

Compound: O=C(COc1ccc(Cl)cc1)NC12CC(c3nnc([C@H]4C[C@@H](OC(F)(F)F)C4)o3)(C1)C2 [Form D, 2-(4-chlorophenoxy)-N-[3-[5-[cis-3-(trifluoromethoxy)cyclobutyl]-1,3,4-oxadiazol-2-yl]-1-bicyclo[1.1.1]pentanyl]acetamide]
- storage stability of form ([9]; standing at room temperature or higher (25° C.-50° C.) for several days): convert to Form C
- storage stability of form ([9]; stored at 5° C.): stable for 7 days
- storage stability of form ([9]; stored at RT-60° C., 7 days): converted to Form C
